Test [1] concerns vascular (5HT2) serotonin receptors. In words: Duration of inhibition of vascular 5HT2 receptors in pithed rats (serotonin challenge 0.1 mg/kg i.v.). The format is in vivo, rat. Conditions: for inhibition of vascular serotonin receptors: pithed rats; for Increase in mean blood pressure to serotonin: 0.1 mg/kg iv. As to the method: For these studies pithed rats were treated with vehicle or with the acid or the ester at a dose of 0.1 mg/kg, i.v. and challenged with serotonin (0.1 mg/kg i.v.) at various intervals for 2 hrs. after test compound or vehicle administration.

For test [2] the test system is unchanged. Put plainly: Inhibition of the pressor response to serotonin in pithed rats after intravenous test compound. It counts as in vivo, rat. Particulars: for effect on pressor response to serotonin: pithed rats. As to the method: Serotonin receptor antagonism was evaluated in pithed Wistar normotensive rats (Charles River, Inc. Portage, MI; 240-374 g) since responses in the pithed preparation are primarily direct vascular effects. Rats were anesthetized with Metofane® (methoxyflurane), carotid arterial and femoral venous catheters were implanted, and the trachea was cannulated. Rats were pithed and ventilated with room air (Cohen et al., supra, 1983; Cohen et al., supra, 1985). An equilibration period of 15 min. was observed before control measurements and i.v. administration of test compound or vehicle. Increasing intravenous doses of serotonin were injected 15 min. after intravenous administration of test compound or vehicle. […] By intravenous administration, 1-isopropyldihydrolysergic acid was only approximately one-third as potent as the ester in blocking vascular 5HT2 receptors.

The target in test [3] is T1, 5HT2 receptors (Rattus norvegicus, UniProt P14842).
T1 construct: Ring preparations of external rat jugular veins were used; tissue Harlan Sprague-Dawley, Inc., Cumberland, IN (animals); host or cells: external jugular vein rings of male Wistar rats
T1 sequence (P14842 whole entry): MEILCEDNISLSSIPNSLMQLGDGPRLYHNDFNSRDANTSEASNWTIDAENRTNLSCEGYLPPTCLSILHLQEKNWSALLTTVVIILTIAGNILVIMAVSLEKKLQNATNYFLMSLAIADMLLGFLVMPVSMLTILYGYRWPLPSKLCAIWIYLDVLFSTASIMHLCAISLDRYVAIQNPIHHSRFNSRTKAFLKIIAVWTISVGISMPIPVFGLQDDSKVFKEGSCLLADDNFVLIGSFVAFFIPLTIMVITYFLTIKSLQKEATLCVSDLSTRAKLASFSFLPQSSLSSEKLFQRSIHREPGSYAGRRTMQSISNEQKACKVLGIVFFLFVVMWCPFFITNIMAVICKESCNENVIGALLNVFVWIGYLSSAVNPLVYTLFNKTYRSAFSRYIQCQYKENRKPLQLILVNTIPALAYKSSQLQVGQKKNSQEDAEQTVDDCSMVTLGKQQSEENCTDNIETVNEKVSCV
Put plainly: Antagonism of serotonin-induced contractions in the rat jugular vein (in vitro 5HT2 affinity). The format is cell-based. How it is done: Male Wistar rats (150-300 g) (Harlan Sprague-Dawley, Inc., Cumberland, IN) were killed by cervical dislocation. Ring preparations of external rat jugular veins were used as detailed in [(Cohen et al., J. Pharm. and Exper. Therapeutics 227, 327-332 (1983); Cohen et al., J. Pharm. and Exper. Therapeutics 235, 319-323 (1985).]
Tissues were mounted in organ baths containing 10 ml of modified Krebs' solution of the following composition (millimolar concentrations): NaCl, 118.2; KCl, 4.6; CaCl2.2H2 O, 1.6; KH2 PO4, 1.2; MgSO4, 1.2; dextrose, 10.0; and NaHCO3, 24.8. Tissue bath solutions were maintained at 37° C. and aerated with 95% O2 -5% CO2. Isometric contractions were recorded as changes in grams of force on a Beckman Dynograph with Statham UC-3 transducers and microscale accessory attachments. Tissues were allowed to equilibrate at an initial optimum resting force for 1 to 2 hr before exposure to test compound.
After control contractile responses to serotonin were obtained in the jugular vein, vessels were incubated with appropriate concentrations of the test compound for 1 hr. Responses to serotonin were then repeated in the presence of test compound.
Apparent test compound dissociation constants (KB) were determined for each concentration of test compound according to the following equation: [formula] where (B) is the concentration of the test compound and dose ratio is the ED50 of the serotonin in the presence of the test compound divided by the control ED50. […] The data were also analyzed according to the procedure of Arunlakshana and Schild, Brit. J. Pharmacol. 14, 48-58 (1959) as previously described [Cohen et al., supra (1983)].

Test [4] deals with vascular (5HT2) serotonin receptors. Put plainly: Duration of inhibition of vascular 5HT2 receptors in pithed rats (serotonin challenge 0.1 mg/kg i.v.). It counts as in vivo, rat. Particulars: 0.3 mg/kg iv.
Test [5] concerns the target T1, 5HT2 receptors. Particulars: cited from earlier work.
The mark [6] stands for this setting: 15 minutes after test compound, serotonin 0.1 mg/kg iv.
Setting [7] is: 120 minutes after test compound.

Like-named read-outs stand apart in the source and are kept apart here.

Consider `COC1CCC(OC(=O)C2C[C@@H]3c4cccc5c4c(cn5C(C)C)C[C@H]3N(C)C2)CC1` (some centres unmarked) [I, reference compound], for which the “inhibition of vascular serotonin receptors” value in test [1] (0.1 mg/kg i.v.) was “greater inhibition of vascular serotonin receptors than the acid”. Also, the “Increase in mean blood pressure to serotonin” value (from here on “Increase”) was determined as 7.3 mm Hg in test [1] (setting [6]); 12.7 mm Hg in test [1] (30 minutes after test compound); 23.9 mm Hg in test [1] (60 minutes after test compound); 34.6 mm Hg in test [1] (90 minutes after test compound); 34.6 mm Hg in test [1] (setting [7]). Further, in test [2] (intravenous), the “effect on pressor response to serotonin” value is given as “dose-dependently inhibited”.
The term Kd denotes the concentration at which binding is half-saturated. Regarding `CC(C)n1cc2c3c(cccc31)C1C[C@@H](C(=O)O)CN(C)[C@@H]1C2` (some centres unmarked) [II, 1-isopropyldihydrolysergic acid], the Kb was 0.151 µM on 5HT2 receptors [3] (Schild plot abscissa intercept, rat jugular vein, read-out: pA2 (converted)) and 0.0851 µM at 5HT2 receptors [3] (rat jugular vein, serotonin contraction, apparent dissociation constant, n tissues in parentheses, read-out: -log KB ± SE(n) (converted)). For the same molecule, on 5HT2 receptors [3] (jugular vein, Schild slope not different from negative unity), the “type of antagonism at 5HT2 receptors” value was “competitive antagonist”. Moreover, the Kd at 5HT2 receptors [3] (rat jugular vein) was about 0.1 µM. Also, the “affinity fold lower than the 4-methoxycyclohexyl ester” value on 5HT2 receptors [3] (rat jugular vein) is reported as “approximately 100 fold”. Moreover, the “ratio II/I (pA2)” value at 5HT2 receptors [3] (ratio from pA2 of II and I) was determined as 170. For the same molecule, on 5HT2 receptors [3] (ratio of KB of II to I), the “ratio II/I (KB)” value is 78. For the same molecule, the “-Slope” value at 5HT2 receptors [3] (slope of Schild plot, rat jugular vein) amounted to 1.29. In addition, the “inhibition of vascular serotonin receptors” value in test [1] (0.1 mg/kg i.v.) is “marked block of vascular serotonin receptors”. Further, in test [1] (0.1 mg/kg i.v., 2 hrs. after intravenous administration), the “inhibition of serotonin vascular response 2 hrs. after administration” value was “marked inhibition of serotonin vascular response was still apparent”. The “Increase” value is recorded as 29.7 mm Hg in test [1] (setting [6]); 27.8 mm Hg in test [1] (30 minutes after test compound); 35.3 mm Hg in test [1] (60 minutes after test compound); 41.7 mm Hg in test [1] (90 minutes after test compound); 48.1 mm Hg in test [1] (setting [7]); 3.2 mm Hg in test [4] (15 minutes after test compound). For the same molecule, the “Increase” value was found to be 3.4 mm Hg in test [4] (30 minutes after test compound), 4.2 mm Hg in test [4] (60 minutes after test compound), 9.6 mm Hg in test [4] (90 minutes after test compound) and 13.6 mm Hg in test [4] (setting [7]). Besides, the “potency as a 5HT2 antagonist in vivo” value in test [2] (in vivo) is reported as “relatively high potency”. Moreover, in test [2] (intravenous), the “intravenous dose relative to the 4-methoxycyclohexyl ester to block vascular 5HT2 receptors” value is reported as “three-fold higher”. In addition, in test [2] (intravenous administration), the “potency relative to the ester in blocking vascular 5HT2 receptors” value was “approximately one-third”. For the same molecule, in test [2] (intravenous), the “effect on pressor response to serotonin” value is given as “dose-dependently inhibited”. Further, the “affinity in vitro for 5HT2 receptors (background statement)” value on 5HT2 receptors [5] is “relatively low affinity”.

Source of the values: US4914107A, “Method for selectively blocking 5-HT2 receptors” (Eli Lilly and Company, priority 1989, dated 1990).
